Here are results for 32 compounds from PubChem BioAssay (NCI).

Structures are written as SMILES.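 Test compounds were applied to cells in 96-well plates for 48 hours at 5 doses. GI50 is the concentration that inhibits growth by half. Definition used: TGI = concentration required for complete inhibition of growth.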

Test in all cases: NCI-60 cell line screen, 48 h
The test system of assay [1] is HCT-15 colon.
The test system of assay [2] is ACHN renal.
Assay [3] relates to SK-MEL-5 melanoma.
Assay [4] deals with OVCAR-5 ovarian.
Assay [5] deals with SW-620 colon.
Assay [6] deals with OVCAR-3 ovarian.
Assay [7] deals with UO-31 renal.
In assay [8] the test system is EKVX NSCLC.
Assay [9] relates to MDA-N.
For assay [10], the system named is HS 578T breast.

As for `Nc1ncnc2c1ncn2CCCC(c1ccccc1)P(=O)(O)O` (stereo not drawn), the TGI in assay [1], in assay [2], in assay [3], in [4], in [5] and in assay [6] was more than 100 µM throughout. The TGI in assay [7] and in [8] was more than 100 µM each time.
For `CCOC(=O)CCC(NC(=O)c1ccc(Nc2nc3cc(C(F)(F)F)ccc3nc2C(=O)OCC)cc1)C(=O)OCC` (stereo not drawn), the TGI is more than 100 µM in assay [1]; 26.7 µM in assay [2]; 93 µM in [3]; 39.5 µM in [4]; 81.6 µM in assay [5]; 21.3 µM in assay [9]. Further, the TGI in assay [6] is 26.7 µM; in assay [7], 24.6 µM; in [8], 38 µM.
As to `CC(C)(C)c1ccc(O)c(C(c2ccc([N+](=O)[O-])cc2)c2cc(C(C)(C)C)ccc2O)c1`, the TGI stood at 4.27 µM in assay [1]; 3.3 µM in assay [2]; 18.7 µM in [10]; 3.25 µM in assay [4]; 4.71 µM in assay [5]; 3.25 µM in assay [6]. For the same compound, the results for the TGI in assay [7] and in assay [8] were 3.52 µM and 3.92 µM, respectively.
For the compound `NC(=O)COc1c(Br)cc(Br)cc1Br`, the TGI in [1], in [2], in assay [3], in assay [4], in assay [6] and in assay [7] was more than 100 µM in each case. Also, the TGI in assay [8] is more than 100 µM.
On to `O=C1CCCCC/C1=C\c1cccc([N+](=O)[O-])c1`, for which the TGI in assay [2] was more than 100 µM; in assay [3], 40.4 µM; in assay [4], more than 100 µM; in [5], more than 100 µM; in assay [9] it was more than 100 µM; in assay [6], more than 100 µM. Besides, the TGI is 80.1 µM in [7] and more than 100 µM in assay [8].
Consider `CCCc1n[nH]c(=O)n1N1C(=O)C=CC1=O`, for which the TGI in assay [1], in [3], in assay [4], in assay [9], in [6] and in assay [8] was more than 100 µM each time.
Turning to `C[N+](C)(C)CCOC(=O)/C=C/c1cnc[nH]1`, the TGI in [1], in assay [3], in [4], in assay [5], in assay [6] and in [7] was more than 500 µM in each case. Moreover, the TGI in assay [8] is more than 500 µM.
As to `Nc1ncnc2c1sc(=S)n2-c1ccccc1`, the TGI in assay [1], in assay [2], in assay [3], in assay [4], in [5] and in [6] was more than 100 µM in each case. For the same compound, the TGI in [7] and in assay [8] was more than 100 µM in each case.
Turning to `COc1cccc2c1C(=O)c1c(O)c3c(c(O)c1C2=O)C[C@@](O)(C(=O)CN1CCOCC1)C[C@@H]3OC1CC(N)C(O)C(C)O1` (stereo partly drawn), the TGI in assay [1] is 77.6 µM; in assay [3], 15.7 µM; in assay [4] it was 57.6 µM; in [5] it was more than 78.7 µM; in [6], 57.4 µM; in assay [7], 59.6 µM. Also, in assay [8], the TGI worked out at 55.9 µM. The GI50 in [6] was 10.6 µM.
Consider `O=C(N/N=C\c1cccs1)c1ccncc1`, for which the TGI in assay [1], in assay [2], in [3], in assay [10], in assay [4] and in assay [5] was more than 100 µM each time. Also, the TGI in [6], in [7] and in assay [8] was more than 100 µM throughout.
Turning to `COc1cc(N)c2[nH]c3c(C)ccc(C)c3c2c1`, the TGI in assay [1], in assay [2], in assay [3], in assay [4], in assay [5] and in [6] was more than 100 µM each time. The TGI in assay [7] and in assay [8] was more than 100 µM each time.
As to `COc1ccc(C2S/C(=C\c3cccc(OC)c3)C(=O)N2NC(=O)Cc2ccccc2)cc1` (stereo not drawn), the TGI in [1], in assay [2], in assay [3], in assay [4], in assay [5] and in assay [7] was more than 100 µM each time.
As for `Fc1ccc2[nH]cc(-c3nc(-c4c[nH]c5ccncc45)cs3)c2c1`, the GI50 is 1.61 µM in assay [2], 1.93 µM in assay [4], 1.8 µM in assay [6] and 1.33 µM in [7]. Moreover, the TGI came to 2.97 µM in assay [2], 3.38 µM in assay [4], 3.3 µM in assay [6] and 2.61 µM in assay [7].
For `Cc1c(OCCCOc2ccc3c(=O)cc(-c4ccccc4)oc3c2C)ccc2c(=O)cc(-c3ccccc3)oc12`, the TGI in assay [1], in [3], in assay [4], in assay [5], in [6] and in [7] was more than 100 µM in each case. In [8], the TGI was more than 100 µM.
For the compound `CCNC(=O)NNc1ncnc2c1c(-c1ccc(Cl)cc1)cn2-c1ccc(C)cc1`, the TGI in assay [1] came out at 47.8 µM; in [2], 41.9 µM; in [3], 28 µM; in assay [4], 33.5 µM; in [5], 45 µM; in assay [9] it was 36.8 µM. The TGI was determined as 33.6 µM in assay [6], 28.3 µM in [7] and 65.4 µM in assay [8].
Consider `COc1cc2c(c(O)c1C)C(=O)CC(c1ccccc1)O2` (stereo not drawn), for which the TGI in assay [1] is more than 100 µM; in assay [2], more than 100 µM; in assay [3], 37.2 µM; in assay [4], more than 100 µM; in assay [5] it was more than 10 µM; in assay [6] it was more than 100 µM. Also, the TGI in [7] and in assay [8] was more than 100 µM throughout.
For `COc1cc(NS(C)(=O)=O)ccc1NCc1cnc2ccc3[nH]cccc3c12`, the TGI is 58.4 µM in assay [1]; 69.2 µM in assay [2]; 25.2 µM in assay [3]; 47.5 µM in [10]; 50.4 µM in [4]; more than 92 µM in assay [5]. Moreover, the figures for the TGI in [6], in assay [7] and in [8] were 53.2 µM, 59 µM and 57.7 µM, respectively.
With `Cc1nc2ccccc2c(=O)n1NC(=O)c1ccccc1[N+](=O)[O-]`, the TGI in [1], in assay [2], in assay [3], in assay [10], in assay [4] and in [5] was more than 100 µM throughout. Further, the TGI in assay [6], in [7] and in [8] was more than 100 µM throughout.
On to `C[N+](C)=c1ccc2nc3c(ccc4ccccc43)oc-2c1`, for which the TGI is 34.6 µM in [1]; 26.7 µM in assay [2]; 27.5 µM in [3]; 37 µM in [4]; 10.5 µM in [5]; 14 µM in assay [6]. Also, the TGI in [7] stood at 31.5 µM; in [8] it was 37.3 µM.
On to `CC1(C)OC2CC3COC(=O)C3CC2O1` (stereo not drawn), for which the TGI in assay [1], in [2], in assay [3], in [4], in assay [5] and in assay [6] was more than 100 µM each time. Moreover, the TGI in assay [7] and in [8] was more than 100 µM in each case.
In the case of `C/C=C/c1cc2c(c(=O)o1)C(=O)[C@@H](O)[C@H](C)O2`, the TGI was found to be 25.9 µM in [1]; 29.4 µM in assay [3]; 31.1 µM in assay [4]; 22.9 µM in assay [5]; 32.8 µM in [6]; 37.2 µM in assay [7]. This compound also had a TGI in [8] of 31 µM.
As to `CNC(=O)c1cc2nc3ccccc3c(=O)n2c2ccccc12`, the TGI in assay [1], in [2], in assay [3], in assay [10], in [4] and in assay [5] was more than 10 µM throughout. Moreover, the TGI in assay [6], in [7] and in assay [8] was more than 10 µM each time.
As to `Nc1ccc2nc(Nc3ccc(Cl)c(Cl)c3)cnc2c1`, the TGI was 46.5 µM in [1]; 91.9 µM in assay [2]; more than 100 µM in assay [3]; 46.8 µM in assay [4]; 33.7 µM in assay [5]; 36.7 µM in [6]. Further, the figures for the TGI in assay [7] and in [8] were 29.4 µM and more than 100 µM, respectively.
With `COC1=CC(=O)C2C(C1=O)[C@@H]1c3ccccc3OC(C)(C)[C@H]21` (stereo partly drawn), the TGI was 36.2 µM in assay [1]; 27.2 µM in assay [2]; 74 µM in assay [3]; more than 100 µM in assay [4]; 48 µM in assay [5]; 28.3 µM in assay [6]. Moreover, the results for the TGI in assay [7] and in assay [8] were 38.1 µM and 88.1 µM, respectively.
As to `CCCCCCCCCCCCCCCCNCC(O)CN` (stereo not drawn), the TGI worked out at 4.38 µM in [1]; 27 µM in assay [3]; 19.7 µM in assay [4]; 3.17 µM in assay [5]; 6.52 µM in assay [6]; 25.3 µM in assay [7]. For the same compound, the TGI in [8] came to 44.6 µM.
`COc1cc(OCc2nc3cc(C(F)(F)F)ccc3nc2-c2ccccc2)cc(OC)c1OC`: the TGI in assay [1], in assay [2], in assay [3], in assay [10], in assay [4] and in assay [5] was more than 100 µM in each case. Also, the TGI in assay [6], in assay [7] and in assay [8] was more than 100 µM in each case.
Consider `CCCCOc1c(C(=O)O)cc(Br)cc1C(=O)O`, for which the TGI in [1], in assay [2], in assay [3], in assay [4], in assay [5] and in [9] was more than 100 µM throughout. The TGI in [6], in [7] and in assay [8] was more than 100 µM in each case.
With `Cc1c(-c2coc(-c3ccccc3)n2)c(=O)n(-c2ccccc2)n1C`, the TGI in assay [1] was more than 100 µM; in [2], more than 100 µM; in [3], 61 µM; in [4] it was more than 100 µM; in assay [5], more than 100 µM; in assay [6], more than 100 µM. Also, the TGI in assay [7] is more than 100 µM.
`N#CNC(=NCc1ccccc1)NCCc1c[nH]c2ccccc12`: the TGI is more than 100 µM in [1]; more than 100 µM in assay [2]; 83.3 µM in [3]; more than 100 µM in assay [4]; more than 100 µM in [5]; more than 100 µM in assay [6]. The TGI in assay [7] is 86.2 µM; in [8] it was more than 100 µM.
In the case of `C=CCNc1nc(O)c(/C=C2\C=Nc3ncccc32)s1`, the GI50 in assay [1] was 2.62 µM; in assay [2], 2.21 µM; in assay [3], 2.86 µM; in assay [10], 2.03 µM; in assay [4], 2.66 µM; in assay [5] it was 2.13 µM. For the same compound, the GI50 in assay [6] is 2.21 µM; in assay [7] it was 3.36 µM; in assay [8] it was 3.4 µM. In addition, the TGI in [1] is more than 100 µM; in assay [2], more than 100 µM; in assay [3], more than 100 µM; in assay [10] it was 9.66 µM; in assay [4], more than 100 µM; in assay [5], 9.25 µM. Further, the TGI in [6] was 7.29 µM; in assay [7], more than 100 µM; in [8] it was more than 100 µM.
Turning to `N=c1n(CC(=O)NC23CC4CC(CC(C4)C2)C3)c2ccccc2n1CC(=O)NC12CC3CC(CC(C3)C1)C2`, the TGI was 3.31 µM in assay [1]; 3.94 µM in assay [2]; 3.24 µM in assay [3]; 3.08 µM in assay [4]; 3 µM in assay [5]; 3.32 µM in assay [6]. Further, the TGI is 26 µM in [7] and 5.03 µM in [8].
Consider `N=S(=O)(c1ccccc1)c1ccccc1`, for which the TGI in assay [2], in assay [3], in [4], in assay [5], in assay [6] and in [7] was more than 100 µM each time. In assay [8], this compound returned a TGI of more than 100 µM.
